Legend:
A2780 = experiment: Tumour cell proliferation/vitality assay (Alamar Blue), A2780; type: cell-based; settings: Homo sapiens; vitality assay, A2780 cells
Protocol: (§1) In the present experiment description, the inhibition of tumour cell proliferation/tumour cell vitality by active compounds is described.
(§2) The cells are sown in a suitable cell density in microtitre plates (96-well format) and the test substances are added in the form of a concentration series. After four further days of cultivation in serum-containing medium, the tumour cell proliferation/tumour cell vitality can be determined by means of an Alamar Blue test system.
(§3) The cells are cultivated in medium. At intervals of several days, the cells are detached from the culture dishes with the aid of trypsin solution and sown in suitable dilution in fresh medium. The cells are cultivated at 37° Celsius and 10% CO2.
(§4) A defined number of cells (for example 2000 cells) per culture/well in a volume of 180 μl of culture medium are sown in microtitre plates (96 well cell-culture plates) using a multichannel pipette. The cells are subsequently cultivated in a CO2 incubator (37° C. and 10% CO2).
(§5) The test substances are dissolved, for example, in DMSO and subsequently employed in corresponding concentration (if desired in a dilution series) in the cell culture medium. The dilution steps can be adapted depending on the efficiency of the active compounds and the desired spread of the concentrations. Cell culture medium is added to the test substances in corresponding concentrations. The addition of the test substances to the cells can take place on the same day as the sowing of the cells. To this end, in each case 20 μl of substance solution from the predilution plate are added to the cultures/wells. The cells are cultivated for a further 4 days at 37° Celsius and 10% CO2.
(§6) In each case, 20 μl of Alamar Blue reagent are added per well, and the microtitre plates are incubated, for example, for a further seven hours in a CO2 incubator (at 37° C. and 10% CO2). The plates are measured in a reader with a fluorescence filter at a wavelength of 540 nm. The plates can be shaken gently immediately before the measurement.
(§7) The absorbance value of the medium control (no cells and test substances used) is subtracted from all other absorbance values. The controls (cells without test substance) are set equal to 100 percent, and all other absorbance values are set in relation thereto (for example in % of control): […]

HCT 116 = experiment: Tumour cell proliferation/vitality assay (Alamar Blue), HCT 116; type: cell-based; settings: Homo sapiens; vitality assay, HCT 116 cells
Protocol: as §1, §2, §3, §4, §5, §6, §7

TGF-beta = experiment: Inhibition of TGF-beta-mediated effects (elimination of TGF-beta-mediated growth inhibition, Mv1Lu cells, Crystal Violet); type: cell-based
Protocol: In-Vitro (Enzyme) Assay for Determination of the Efficacy of the Inhibitors of the Inhibition of TGF-Beta-Mediated Effects
As an example, the ability of the inhibitors to eliminate TGF-beta-mediated growth inhibition is tested.
Cells of the lung epithelial cell line Mv1Lu are sown in a defined cell density in a 96-well microtitre plate and cultivated overnight under standard conditions. Next day, the medium is replaced by medium which comprises 0.5% of FCS and 1 ng/ml of TGF-beta, and the test substances are added in defined concentrations, generally in the form of dilution series with 5-fold steps. The concentration of the solvent DMSO is constant at 0.5%. After a further two days, Crystal Violet staining of the cells is carried out. After extraction of the Crystal Violet from the fixed cells, the absorption is measured spectrophotometrically at 550 nm. It can be used as a quantitative measure of the adherent cells present and thus of the cell proliferation during the culture.

IKKε = IKKε (Homo sapiens (Human), UniProt Q14164); experiment: IKKε kinase test (384-well flashplate); type: biochemical; settings: read-out: IC50 [IKKepsilon]
Chain of IKKε (Q14164 whole entry, species assumed): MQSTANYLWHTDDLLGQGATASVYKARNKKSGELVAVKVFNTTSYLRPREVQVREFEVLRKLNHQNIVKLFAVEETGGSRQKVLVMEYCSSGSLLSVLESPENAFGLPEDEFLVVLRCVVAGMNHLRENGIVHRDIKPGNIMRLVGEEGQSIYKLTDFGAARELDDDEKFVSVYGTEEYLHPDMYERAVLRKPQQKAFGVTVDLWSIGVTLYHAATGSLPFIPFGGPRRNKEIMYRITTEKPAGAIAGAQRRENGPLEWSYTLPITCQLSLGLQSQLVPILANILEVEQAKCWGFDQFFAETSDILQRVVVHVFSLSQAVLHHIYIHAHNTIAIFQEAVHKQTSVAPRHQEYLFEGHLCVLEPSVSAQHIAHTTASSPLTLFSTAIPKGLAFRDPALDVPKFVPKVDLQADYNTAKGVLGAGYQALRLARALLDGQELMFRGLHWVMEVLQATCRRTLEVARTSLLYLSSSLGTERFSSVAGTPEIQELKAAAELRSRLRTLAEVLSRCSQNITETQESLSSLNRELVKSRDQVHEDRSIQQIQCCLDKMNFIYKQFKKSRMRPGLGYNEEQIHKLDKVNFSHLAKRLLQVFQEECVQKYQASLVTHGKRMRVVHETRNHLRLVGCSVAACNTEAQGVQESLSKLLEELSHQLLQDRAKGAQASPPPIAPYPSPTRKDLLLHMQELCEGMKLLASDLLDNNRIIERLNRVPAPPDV
Protocol: (§8) The kinase assay is performed as 384-well flashplate assay.
1 nM IKKε, 800 nM biotinylated IκBα(19-42) peptide (biotin-C6-C6-[…]) and 10 μM ATP (with 0.3 μCi of ^33P-ATP/well) are incubated in a total volume of 50 μl (10 mM MOPS, 10 mM magnesium acetate, 0.1 mM EGTA, 1 mM dithiothreitol, 0.02% of Brij35, 0.1% of BSA, 0.1% of BioStab, pH 7.5) with or without test substance at 30° C. for 120 min. The reaction is stopped using 25 μl of 200 mM EDTA solution, filtered off with suction after 30 min at room temperature, and the wells are washed 3 times with 100 μl of 0.9% NaCl solution. The non-specific proportion of the kinase reaction (blank) is determined using 3 μM EMD 1126352 (BX-795). Radioactivity is measured in the Topcount. IC50 values are calculated using RS1.

[1] = target: TANK binding kinase (TBK1) (Homo sapiens (Human), UniProt Q9UHD2); experiment: TBK1 kinase test (384-well flashplate); type: biochemical
Chain of TANK binding kinase (TBK1) (Q9UHD2 whole entry, species assumed): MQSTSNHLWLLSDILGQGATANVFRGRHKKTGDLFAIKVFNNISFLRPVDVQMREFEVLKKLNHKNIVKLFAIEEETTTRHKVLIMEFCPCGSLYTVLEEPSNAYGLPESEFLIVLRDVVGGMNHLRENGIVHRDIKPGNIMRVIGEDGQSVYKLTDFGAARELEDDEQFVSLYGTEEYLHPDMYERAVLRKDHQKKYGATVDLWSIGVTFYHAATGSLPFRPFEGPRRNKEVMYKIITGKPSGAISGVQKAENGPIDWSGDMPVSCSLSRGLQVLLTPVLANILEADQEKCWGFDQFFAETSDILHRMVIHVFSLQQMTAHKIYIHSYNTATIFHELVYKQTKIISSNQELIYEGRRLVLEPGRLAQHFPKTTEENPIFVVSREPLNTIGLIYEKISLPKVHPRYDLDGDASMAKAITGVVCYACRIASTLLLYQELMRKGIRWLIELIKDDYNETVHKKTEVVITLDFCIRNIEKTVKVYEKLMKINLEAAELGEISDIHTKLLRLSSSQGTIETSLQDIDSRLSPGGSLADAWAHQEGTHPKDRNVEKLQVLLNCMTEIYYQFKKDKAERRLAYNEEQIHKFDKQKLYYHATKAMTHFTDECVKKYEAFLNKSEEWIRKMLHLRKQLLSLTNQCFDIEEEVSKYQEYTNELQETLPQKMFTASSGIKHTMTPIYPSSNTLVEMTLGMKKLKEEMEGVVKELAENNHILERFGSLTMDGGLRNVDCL
Protocol: as §8
0.6 nM TANK binding kinase (TBK1), 800 nM biotinylated MELK-derived peptide (biotin-Ah-Ah-[…]) and 10 μM ATP (with 0.25 μCi of ^33P-ATP/well) are incubated in a total volume of 50 μl (10 mM MOPS, 10 mM magnesium acetate, 0.1 mM EGTA, 1 mM DTT, 0.02% of Brij35, 0.1% of BSA, pH 7.5) with or without test substance at 30° C. for 120 min. The reaction is stopped using 25 μl of 200 mM EDTA solution, filtered off with suction after 30 min at room temperature, and the wells are washed 3 times with 100 μl of 0.9% NaCl solution. The non-specific proportion of the kinase reaction (blank) is determined using 100 nM staurosporine. Radioactivity is measured in the Topcount. IC50 values are calculated using RS1.

PDK1 = PDK1 (Homo sapiens (Human), UniProt O15530); experiment: Test for the inhibition of PDK1 (flashplate, 33P-ATP); type: biochemical
Chain of PDK1 (O15530 51-556): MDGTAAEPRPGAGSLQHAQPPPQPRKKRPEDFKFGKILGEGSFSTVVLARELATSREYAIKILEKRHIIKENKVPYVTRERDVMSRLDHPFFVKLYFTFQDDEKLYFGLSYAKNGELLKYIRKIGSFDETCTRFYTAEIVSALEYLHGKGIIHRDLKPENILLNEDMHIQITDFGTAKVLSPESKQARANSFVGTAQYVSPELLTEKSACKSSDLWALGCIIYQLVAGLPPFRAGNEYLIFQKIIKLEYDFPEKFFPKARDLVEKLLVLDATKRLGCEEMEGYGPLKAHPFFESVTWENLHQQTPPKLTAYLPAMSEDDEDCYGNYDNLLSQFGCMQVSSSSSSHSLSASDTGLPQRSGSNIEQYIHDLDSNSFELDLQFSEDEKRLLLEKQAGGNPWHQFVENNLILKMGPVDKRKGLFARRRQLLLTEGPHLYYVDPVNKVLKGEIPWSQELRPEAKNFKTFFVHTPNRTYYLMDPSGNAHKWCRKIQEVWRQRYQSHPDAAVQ
Protocol: The experimental batches are carried out in a flashplate system with 384 wells/microtitration plate.
(400 nM), 4 μM ATP (with 0.2 μCi of ^33P-ATP/well) and the test substance in 50 μl of conventional experimental solution per well are incubated at 30° C. for 60 min. The test substances are employed in corresponding concentrations (if desired in a dilution series). The control is carried out without test substance. The reaction is stopped using standard methods and washed. The activity of the kinase is measured via the incorporated radioactivity in top count. In order to determine the non-specific kinase reaction (blank value), the experimental batches are carried out in the presence of 100 nM staurosporine.
The radioactivity (decompositions per minute) of the blank value (no use of test substance in the presence of staurosporine) is subtracted from all other radioactivity values. The controls (kinase activity without test substance) are set equal to 100 percent and all other radioactivity values (after subtracting the blank value) are expressed set in relation thereto (for example in % of the control).

Nc1cc(-c2c[nH]c3ncccc23)c2ccccc2n1 [Compound A1, 4-(1H-pyrrolo[2,3-b]pyridin-3-yl)quinolin-2-ylamine]
IC50 (A2780): 1000 to 10000 nM
IC50 (HCT 116): 1000 to 10000 nM

c1cnc2[nH]cc(-c3cnc4ncccn34)c2c1 [Compound A3, 3-(1H-pyrrolo[2,3-b]pyridin-3-yl)imidazo[1,2-a]pyrimidine]
IC50 (A2780): 1000 to 10000 nM
IC50 (HCT 116): 1000 to 10000 nM

c1ccc2c(-c3c[nH]c4ncccc34)cnnc2c1 [Compound A4, 4-(1H-pyrrolo[2,3-b]pyridin-3-yl)cinnoline]
IC50 (A2780): 1000 to 10000 nM
IC50 (TGF-beta): 1000 to 10000 nM
IC50 (HCT 116): 1000 to 10000 nM

c1cc(-c2c[nH]c3ncccc23)c2ccncc2c1 [Compound A7, 5-(1H-pyrrolo[2,3-b]pyridin-3-yl)isoquinoline]
IC50 (IKKε): 1000 to 10000 nM
IC50 (A2780): 1000 to 10000 nM
IC50 (TGF-beta): 0.5 to 1000 nM
IC50 [1]: 1000 to 10000 nM
IC50 (HCT 116): 1000 to 10000 nM

Nc1nccc2c(-c3c[nH]c4ncccc34)cccc12 [Compound A11, 5-(1H-pyrrolo[2,3-b]pyridin-3-yl)isoquinolin-1-ylamine]
IC50 (A2780): 1000 to 10000 nM
IC50 (TGF-beta): 1000 to 10000 nM
IC50 (HCT 116): 1000 to 10000 nM

Cn1cc(-c2cnc3[nH]cc(-c4cn(S(=O)(=O)c5ccccc5)c5cnccc45)c3c2)cn1 [Compound A14, 1-benzenesulfonyl-3-[5-(1-methyl-1H-pyrazol-4-yl)-1H-pyrrolo[2,3-b]pyridin-3-yl]-1H-pyrrolo[2,3-c]pyridine]
IC50 (IKKε): 0.5 to 1000 nM
IC50 (A2780): 10 to 1000 nM
IC50 (PDK1): 1000 to 10000 nM
IC50 [1]: 0.5 to 1000 nM

Cc1[nH]c2ncccc2c1-c1cccc2cnccc12 [Compound A15, 5-(2-methyl-1H-pyrrolo[2,3-b]pyridin-3-yl)isoquinoline]
IC50 (TGF-beta): 0.5 to 1000 nM

c1cnc2[nH]cc(-c3nccc4cnccc34)c2c1 [Compound A16, 1-(1H-pyrrolo[2,3-b]pyridin-3-yl)-2,6-naphthyridine]
IC50 (TGF-beta): 0.5 to 1000 nM

Cn1cc(-c2cccc3cnccc23)c2cccnc21 [Compound A17, 5-(1-methyl-1H-pyrrolo[2,3-b]pyridin-3-yl)isoquinoline]
IC50 (TGF-beta): 0.5 to 1000 nM

c1cnc2[nH]cc(-c3c[nH]c4cnccc34)c2c1 [Compound A18, 3-(1H-pyrrolo[2,3-b]pyridin-3-yl)-1H-pyrrolo[2,3-c]pyridine]
IC50 (IKKε): 1000 to 10000 nM
IC50 (TGF-beta): 1000 to 10000 nM
IC50 (PDK1): 1000 to 10000 nM
IC50 [1]: 0.5 to 1000 nM

Cn1cc(-c2c[nH]c3ncccc23)c2ccncc21 [Compound A19, 1-methyl-3-(1H-pyrrolo[2,3-b]pyridin-3-yl)-1H-pyrrolo[2,3-c]pyridine]
IC50 (TGF-beta): 1000 to 10000 nM

Cn1cc(-c2cnc3[nH]cc(-c4c[nH]c5cnccc45)c3c2)cn1 [Compound A20, 3-[5-(1-methyl-1H-pyrazol-4-yl)-1H-pyrrolo[2,3-b]pyridin-3-yl]-1H-pyrrolo[2,3-c]pyridine]
IC50 (IKKε): 0.5 to 1000 nM
IC50 (A2780): 10 to 1000 nM
IC50 (TGF-beta): 0.5 to 1000 nM
IC50 (PDK1): 0.5 to 1000 nM
IC50 [1]: 0.5 to 1000 nM
IC50 (HCT 116): 10 to 1000 nM

c1ccc(-c2cc3nccc(-c4c[nH]c5ncccc45)c3o2)cc1 [Compound A21, 2-phenyl-7-(1H-pyrrolo[2,3-b]pyridin-3-yl)furo[3,2-b]pyridine]
IC50 (A2780): 10 to 1000 nM
IC50 (HCT 116): 10 to 1000 nM

Nc1ncc(-c2c[nH]c3ncccc23)c2ccncc12 [Compound A24, 4-(1H-pyrrolo[2,3-b]pyridin-3-yl)-2,7-naphthyridin-1-ylamine]
IC50 (A2780): 1000 to 10000 nM
IC50 (TGF-beta): 0.5 to 1000 nM
IC50 [1]: 1000 to 10000 nM
IC50 (HCT 116): 1000 to 10000 nM

Cc1[nH]c2ncccc2c1-c1nccc2cnccc12 [Compound A28, 1-(2-methyl-1H-pyrrolo[2,3-b]pyridin-3-yl)-2,6-naphthyridine]
IC50 (TGF-beta): 0.5 to 1000 nM

Cn1cc(-c2c[nH]c3cnccc23)c2cccnc21 [Compound A29, 3-(1-methyl-1H-pyrrolo[2,3-b]pyridin-3-yl)-1H-pyrrolo[2,3-c]-pyridine]
IC50 (A2780): 1000 to 10000 nM
IC50 (HCT 116): 1000 to 10000 nM

Cc1[nH]c2ncccc2c1-c1nccc2c(N)nccc12 [Compound A31, 5-(2-methyl-1H-pyrrolo[2,3-b]pyridin-3-yl)-2,6-naphthyridin-1-ylamine]
IC50 (A2780): 1000 to 10000 nM
IC50 (TGF-beta): 0.5 to 1000 nM
IC50 (HCT 116): 1000 to 10000 nM

Nc1nccc2c(-c3c[nH]c4ncccc34)nccc12 [Compound A32, 5-(1H-pyrrolo[2,3-b]pyridin-3-yl)-2,6-naphthyridin-1-ylamine]
IC50 (TGF-beta): 0.5 to 1000 nM
IC50 (HCT 116): 1000 to 10000 nM

Cn1cc(-c2cnc3[nH]cc(-c4cn(C)c5cnccc45)c3c2)cn1 [Compound A33, 1-methyl-3-[5-(1-methyl-1H-pyrazol-4-yl)-1H-pyrrolo[2,3-b]-pyridin-3-yl]-1H-pyrrolo[2,3-c]pyridine]
IC50 (IKKε): 0.5 to 1000 nM
IC50 (TGF-beta): 0.5 to 1000 nM
IC50 (PDK1): 0.5 to 1000 nM
IC50 [1]: 0.5 to 1000 nM

From patent publication US9725446B2, “7-azaindole derivatives” (MERCK PATENT GmbH, priority 2011, dated 2017)
